Experimental findings from ChEMBL document CHEMBL1128873, “The synthesis and antibacterial activity of 2-carbolinyl-carbapenems: potent anti-MRSA/MRCNS agents” (1995) are described below.

Type in all cases: functional
The test system of assay [1] is Staphylococcus sp. In words: In vitro antibacterial activity against Methicillin-resistant coagulase negative Staphylococci (MRCNS) by broth microtube dilution method; value ranges from 4-8.
The subject of assay [2] is Staphylococcus aureus. Nature of the assay: In vitro antibacterial activity against Methicillin-resistant Staphylococcus aureus (MRSA) by broth microtube dilution method.
For another assay, the system named is Enterobacter sp. Nature of the assay: In vitro antibacterial against Enterobacter species. by agar disc diffusion assay method. (A growth-free zone around the sample is the usual read-out of agar diffusion tests.)
The species entered for a further assay is Sus scrofa. In words: DHP-I(porcine) susceptibility was determined.
The subject of the next assay is Klebsiella sp. Nature of the assay: In vitro antibacterial against Klebsiella species. by agar disc diffusion assay method.
For another assay, the system named is Pseudomonas aeruginosa. In words: In vitro antibacterial against Pseudomonas aeruginosa by agar disc diffusion assay method.
In assay [3] the test system is Staphylococcus aureus. Nature of the assay: In vitro antibacterial activity against Methicillin-resistant Staphylococcus aureus (MRSA) by broth microtube dilution method; value ranges from 128 to >128.
In a further assay the test system is Escherichia coli. Nature of the assay: In vitro antibacterial against Escherichia coli by agar disc diffusion assay method.
The subject of assay [4] is Staphylococcus sp. In words: In vitro antibacterial activity against Methicillin-resistant coagulase negative Staphylococci (MRCNS) by broth microtube dilution method; value ranges from 128 to >128.
Another assay has as its system Proteus. In words: In vitro antibacterial against Proteus species. by agar disc diffusion assay method.
The subject of the next assay is Serratia. Nature of the assay: In vitro antibacterial against Serratia species. by agar disc diffusion assay method.
Assay [5] deals with Staphylococcus aureus. In words: In vitro antibacterial activity against Methicillin-susceptible Staphylococcus aureus (MSSA) by agar disc diffusion assay method.
A further assay has as its system Enterococcus sp. In words: In vitro antibacterial against Enterococcus species. by agar disc diffusion assay method.

SMILES strings stand for the structures. ≈ marks a conversion by molar mass, not a printed value.

Usually MIC90 stands for the lowest concentration that inhibits either 90% of growth or 90% of the strains tested, depending on the study. Read a low MIC90 as higher susceptibility. On to `CN[C@H](CC(C)C)C(=O)N[C@H]1C(=O)N[C@@H](CC(N)=O)C(=O)N[C@H]2C(=O)N[C@H]3C(=O)N[C@H](C(=O)N[C@H](C(=O)O)c4cc(O)cc(O)c4-c4cc3ccc4O)[C@H](O)c3ccc(c(Cl)c3)Oc3cc2cc(c3O[C@@H]2O[C@H](CO)[C@@H](O)[C@H](O)[C@H]2O[C@H]2C[C@](C)(N)[C@H](O)[C@H](C)O2)Oc2ccc(cc2Cl)[C@H]1O` [VANCOMYCIN], for which the MIC90 was determined as 4 mg/L (≈ 2.76 µM) in the assay with Staphylococcus sp. [1] and 2 mg/L (≈ 1.38 µM) with Staphylococcus aureus [2].

A word on the MIC: it is the least concentration at which growth counts as inhibited. Read a low MIC as inhibition by little substance. Regarding `C[C@@H](O)[C@H]1C(=O)N2C(C(=O)O)=C(SCCNC=N)C[C@H]12` [IMIPENEM ANHYDROUS], the minimum inhibitory concentration (MIC) against Enterobacter sp. is 0.49 mg/L (≈ 1.64 µM); against Klebsiella sp., 0.59 mg/L (≈ 1.97 µM); against Pseudomonas aeruginosa, 0.31 mg/L (≈ 1.04 µM); against Escherichia coli it was 0.68 mg/L (≈ 2.27 µM); in the assay with Proteus it was 0.95 mg/L (≈ 3.17 µM); against Serratia it was 0.76 mg/L (≈ 2.54 µM). The MIC is 0.009 mg/L (≈ 0.0301 µM) against Staphylococcus aureus [5] and 2.8 mg/L (≈ 9.35 µM) with Enterococcus sp.. This molecule registered a Relative susceptibility in the assay listed under Sus scrofa of 1. Moreover, the MIC90 against Staphylococcus aureus [3] and with Staphylococcus sp. [4] was over 128 mg/L in each case.
